Data reported in patent US20250018014A1, “METHOD FOR TREATING AND/OR PREVENTING REGNASE-1-RELATED DISEASE” (OSAKA UNIVERSITY, priority 2018, published 2025).
Residues, ends and D or L forms follow the SMILES beside them.

molecular target: T1, FL_Reg1 (Homo sapiens, UniProt Q5D1E8); test: Binding of Regnase-1 and peptide compounds (affinity mass analysis, SEC then LC/MS); conditions: 1 μM FL_Reg1, final compound concentration 1 μM, 23° C. for one hour
T1 construct: made in house; host or cells: Expi293 cells
T1 sequence (Q5D1E8 1-599): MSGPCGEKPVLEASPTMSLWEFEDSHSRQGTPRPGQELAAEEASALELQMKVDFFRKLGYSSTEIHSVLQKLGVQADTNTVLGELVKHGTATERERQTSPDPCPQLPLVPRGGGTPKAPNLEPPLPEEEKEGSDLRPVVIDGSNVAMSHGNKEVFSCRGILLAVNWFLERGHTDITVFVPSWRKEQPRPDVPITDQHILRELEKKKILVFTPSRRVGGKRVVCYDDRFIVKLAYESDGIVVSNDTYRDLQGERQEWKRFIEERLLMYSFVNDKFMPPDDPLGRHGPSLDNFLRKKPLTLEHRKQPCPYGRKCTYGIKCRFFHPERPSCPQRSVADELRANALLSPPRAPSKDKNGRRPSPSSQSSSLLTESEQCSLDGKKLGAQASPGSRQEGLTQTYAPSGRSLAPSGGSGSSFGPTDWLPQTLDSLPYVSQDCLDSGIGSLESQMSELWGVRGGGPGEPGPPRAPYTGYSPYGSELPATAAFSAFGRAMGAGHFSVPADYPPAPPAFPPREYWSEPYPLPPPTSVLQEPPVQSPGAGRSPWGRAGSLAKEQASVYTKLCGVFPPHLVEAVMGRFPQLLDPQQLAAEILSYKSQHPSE
Description: To a 96 PP plate (Greiner bio-one, 651201) coated with lipidure (Lipidure-CM5206) (NOF CORPORATION, 71S42000001), 2 μL of Tris-Buffer (25 mM Tris-NaOH pH 8.3, 300 mM NaCl, 1 mM DTT, 1 mM EDTA, 1% DMSO) was dispensed, and then 1 mM DMSO sample was added at 20 nL each with a LABCYTE ECHO (registered trademark) acoustic dispensing system. Furthermore, 18 μL of protein prepared at 1 μM FL_Reg1 in advance using Tris-Buffer was added (final compound concentration: 1 μM), and the mixture was incubated in the dark at 23° C. for one hour. Then, to a 96-well, 400 μL, Hydrophilic PVDF 0.45 μm, Long drip (Harvard, 74-5556), 100 μL of P-2, Fine (Bio-Rad, 1504114) which had been swollen in advance was added, and conditioning was performed by centrifuging several times at 2000× G for two minutes using the buffer. Next, 20 μL of the sample after incubation was added to the conditioned 96-well, 400 μL, Hydrophilic PVDF 0.45 μm, Long drip, and SEC treatment was performed by centrifugation at 2000×G for two minutes. To the liquid from SEC, 32 μL of acetonitrile (LC/MS grade, FUJIFILM Wako Pure Chemical Industries, Ltd.) supplemented with 0.1% formic acid (LC/MS grade, 067-04531, FUJIFILM Wako Pure Chemical Industries, Ltd.) was added, and this was centrifuged at 1800×G for five minutes, and the supernatant was used as an analysis sample for LC/MS measurement. Binding to Regnase-1 was detected for all of the peptide compounds, PP1 to PP25.

Row | AS-MS ratio(%) | Compound
1 | 14.5 | CC[C@H](C)[C@@H]1NC(=O)[C@H](CCCNC(=N)N)NC(=O)[C@H](Cc2ccc(O)cc2)NC(=O)[C@H](Cc2c[nH]c3ccccc23)NC(=O)[C@H](CO)NC(=O)[C@H](CC(N)=O)NC(=O)[C@H](C)N(C)C(=O)C[C@@H](C(=O)N2CCCC2)NC(=O)[C@H](CC(C)C)NC(=O)CNC(=O)[C@H](Cc2c[nH]c3ccccc23)NC1=O [PP22] (HELM PEPTIDE1{[meA].N.S.W.Y.R.I.W.G.L.D.[C1CCN([*:1])C1]}$PEPTIDE1,PEPTIDE1,1:R1-11:R3$$$V2.0)
2 | 66.7 | CC[C@H](C)[C@@H]1NC(=O)[C@H](CC(N)=O)NC(=O)[C@H]([C@@H](C)CC)NC(=O)[C@H](Cc2ccc(O)cc2)NC(=O)[C@H](Cc2c[nH]c3ccccc23)NC(=O)[C@H](CO)NC(=O)[C@H](CC(N)=O)NC(=O)[C@H](C)N(C)C(=O)C[C@@H](C(=O)N2CCCC2)NC(=O)[C@H](Cc2c[nH]cn2)NC(=O)CNC(=O)[C@H](Cc2c[nH]c3ccccc23)NC1=O [PP15] (HELM PEPTIDE1{[meA].N.S.W.Y.I.N.I.W.G.H.D.[C1CCN([*:1])C1]}$PEPTIDE1,PEPTIDE1,1:R1-12:R3$$$V2.0)
3 | 3.7 | CC[C@H](C)[C@@H]1NC(=O)[C@H](CO)NC(=O)[C@H](CCCNC(=N)N)NC(=O)[C@H](Cc2ccc(O)cc2)NC(=O)[C@H](Cc2ccc(O)cc2)NC(=O)[C@H](Cc2c[nH]c3ccccc23)NC(=O)[C@H](CO)NC(=O)[C@H](CCC(N)=O)NC(=O)[C@H](Cc2ccc(O)cc2)NC(=O)[C@H](CC(N)=O)NC(=O)[C@H](C)N(C)C(=O)C[C@@H](C(=O)N2CCCC2)NC(=O)[C@H](Cc2c[nH]c3ccccc23)NC1=O [PP10] (HELM PEPTIDE1{[meA].N.Y.Q.S.W.Y.Y.R.S.I.W.D.[C1CCN([*:1])C1]}$PEPTIDE1,PEPTIDE1,1:R1-13:R3$$$V2.0)
4 | 17.9 | CC[C@H](C)[C@@H]1NC(=O)[C@H](CC(N)=O)NC(=O)[C@H](Cc2ccc(O)cc2)NC(=O)[C@H](Cc2c[nH]c3ccccc23)NC(=O)[C@H](CO)NC(=O)[C@H](CC(N)=O)NC(=O)[C@H](CO)NC(=O)[C@H](Cc2ccccc2)NC(=O)[C@H](CC(N)=O)NC(=O)[C@H](C)N(C)C(=O)C[C@@H](C(=O)N2CCCC2)NC(=O)[C@H](Cc2c[nH]c3ccccc23)NC1=O [PP16] (HELM PEPTIDE1{[meA].N.F.S.N.S.W.Y.N.I.W.D.[C1CCN([*:1])C1]}$PEPTIDE1,PEPTIDE1,1:R1-12:R3$$$V2.0)
5 | 15.1 | CC[C@H](C)[C@@H]1NC(=O)[C@H](CCCCN)NC(=O)[C@H](Cc2ccc(O)cc2)NC(=O)[C@H](Cc2c[nH]c3ccccc23)NC(=O)[C@H](CO)NC(=O)[C@H](CC(N)=O)NC(=O)[C@H](C)N(C)C(=O)C[C@@H](C(=O)N2CCCC2)NC(=O)[C@H](CC(C)C)NC(=O)CNC(=O)[C@H](Cc2c[nH]c3ccccc23)NC1=O [PP21] (HELM PEPTIDE1{[meA].N.S.W.Y.K.I.W.G.L.D.[C1CCN([*:1])C1]}$PEPTIDE1,PEPTIDE1,1:R1-11:R3$$$V2.0)
